Test results reported in the NIST ThermoML archive (doi:10.1016/j.tca.2007.02.005).
± gives the expanded uncertainty stated by the source.

Assays:
[1] = Crystal; DTA
[2] = Molar enthalpy of transition or fusion; conditions: Crystal; DSC

Normal melting temperature [1] [°C] | Molar enthalpy of transition or fusion [2] [kcal/mol] | Compound
60.90 ± 1.2 | 4.3 ± 0.105 | CCn1cc[n+](C)c1.F[P-](F)(F)(F)(F)F [1-ethyl-3-methylimidazolium hexafluorophosphate]
274.60 ± 2.1 | 8.92 ± 0.194 | c1ccc(-c2nc(-c3ccccc3)c(-c3ccccc3)[nH]2)cc1 [2,4,5-triphenyl-1H-imidazole]
231.80 ± 2.1 | 7.73 ± 0.17 | c1ccc(-c2nc[nH]c2-c2ccccc2)cc1 [4,5-diphenylimidazole]

Compound | Normal melting temperature [1] [°C] | Molar enthalpy of transition or fusion [2] [kcal/mol]
c1ccc(-c2ncc[nH]2)cc1 [2-phenyl-1H-imidazole] | 146.80 ± 2.1 | 4.26 ± 0.108
